Measured values reported in US7598417B2, “Substituted fluoroethyl ureas as alpha 2 adrenergic agents” (Allergan, Inc., priority 2007, dated 2009).

Experiments:
Assay type in all cases: cell-based
[1] = biological target: T1, alpha2A receptor (Homo sapiens, UniProt P08913); test: Receptor Selection and Amplification Technology (RSAT) assay, alpha2A; conditions: for Alpha 2A EC50 / EC50: RSAT, NIH-3T3 cells cotransfected with receptor and Gq/i5, not active = not active at concentrations less than 10 micromolar; for EC50: read-out: Alpha 2A EC50; for Alpha 2A IA (intrinsic activity): ratio of maximal effect of the drug to maximal effect of standard full agonist brimonidine (UK14304)
T1 construct: expressed in transfected cells; host or cells: NIH-3T3
T1 sequence (P08913 1-465): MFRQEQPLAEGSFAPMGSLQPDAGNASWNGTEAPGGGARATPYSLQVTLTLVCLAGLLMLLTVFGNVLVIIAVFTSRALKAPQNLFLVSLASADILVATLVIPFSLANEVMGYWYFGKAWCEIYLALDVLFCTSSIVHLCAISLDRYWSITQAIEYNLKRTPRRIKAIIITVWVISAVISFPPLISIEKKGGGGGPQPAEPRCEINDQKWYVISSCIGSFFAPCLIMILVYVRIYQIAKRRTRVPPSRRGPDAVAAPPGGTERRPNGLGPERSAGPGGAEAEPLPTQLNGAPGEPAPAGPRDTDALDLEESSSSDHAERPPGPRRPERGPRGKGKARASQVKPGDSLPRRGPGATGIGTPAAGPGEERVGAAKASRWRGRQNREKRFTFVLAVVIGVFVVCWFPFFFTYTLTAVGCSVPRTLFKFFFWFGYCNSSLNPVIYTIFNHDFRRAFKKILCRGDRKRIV
Method: (§1) Receptor Selection and Amplification Technology (RSAT) Assay
(§2) The RSAT assay measures a receptor-mediated loss of contact inhibition that results in selective proliferation of receptor-containing cells in a mixed population of confluent cells. The increase in cell number is assessed with an appropriate transfected marker gene such as β-galactosidase, the activity of which can be easily measured in a 96-well format. Receptors that activate the G protein, Gq, elicit this response. Alpha2 receptors, which normally couple to Gi, activate the RSAT response when coexpressed with a hybrid Gq protein that has a Gi receptor recognition domain, called Gq/i5.
(§3) NIH-3T3 cells are plated at a density of 2×10^6 cells in 15 cm dishes and maintained in Dulbecco's modified Eagle's medium supplemented with 10% calf serum. One day later, cells are cotransfected by calcium phosphate precipitation with mammalian expression plasmids encoding p-SV-β-galactosidase (5-10 μg), receptor (1-2 μg) and G protein (1-2 μg). 40 μg salmon sperm DNA may also be included in the transfection mixture. Fresh media is added on the following day and 1-2 days later, cells are harvested and frozen in 50 assay aliquots. Cells are thawed and 100 μl added to 100 μl aliquots of various concentrations of drugs in triplicate in 96-well dishes. Incubations continue 72-96 hr at 37° C. After washing with phosphate-buffered saline, β-galactosidase enzyme activity is determined by adding 200 μl of the chromogenic substrate (consisting of 3.5 mM o-nitrophenyl-β-D-galactopyranoside and 0.5% nonidet P-40 in phosphate buffered saline), incubating overnight at 30° C. and measuring optical density at 420 nm. The absorbance is a measure of enzyme activity, which depends on cell number and reflects a receptor-mediated cell proliferation. The efficacy or intrinsic activity is calculated as a ratio of the maximal effect of the drug to the maximal effect of a standard full agonist for each receptor subtype. Brimonidine, also called UK14304, the chemical structure of which is shown below, is used as the standard agonist for the alpha2A, alpha2B and alpha2C receptors. The EC50 is the concentration at which the drug effect is half of its maximal effect.
(§4) EC50 values are nanomolar. NA stands for “not active” at concentrations less than 10 micromolar. IA stands for “intrinsic activity.”

[2] = biological target: T2, alpha2B receptor (Homo sapiens, UniProt P18089); test: Receptor Selection and Amplification Technology (RSAT) assay, alpha2B; conditions: for EC50: read-out: Alpha 2B EC50; for Alpha 2B IA (intrinsic activity): ratio of maximal effect of the drug to maximal effect of standard full agonist brimonidine (UK14304)
T2 construct: expressed in transfected cells; host or cells: NIH-3T3
T2 sequence (P18089 1-450): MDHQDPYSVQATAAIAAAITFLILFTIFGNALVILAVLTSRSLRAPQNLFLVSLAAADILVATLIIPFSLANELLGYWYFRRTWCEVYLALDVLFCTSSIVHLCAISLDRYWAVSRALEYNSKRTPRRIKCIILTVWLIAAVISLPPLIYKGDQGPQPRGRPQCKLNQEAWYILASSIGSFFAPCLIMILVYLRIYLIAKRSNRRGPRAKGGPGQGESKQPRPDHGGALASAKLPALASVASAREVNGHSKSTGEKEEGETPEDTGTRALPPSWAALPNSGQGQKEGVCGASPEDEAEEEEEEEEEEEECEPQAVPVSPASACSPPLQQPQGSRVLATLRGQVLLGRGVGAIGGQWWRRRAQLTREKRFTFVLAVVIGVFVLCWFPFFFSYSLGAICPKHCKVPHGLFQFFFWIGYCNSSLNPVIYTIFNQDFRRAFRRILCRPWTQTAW
Method: as §1, §2, §3
The results of the RSAT assay with several exemplary compounds of the invention are disclosed in Table 1 above together with the chemical formulas of these exemplary compounds. EC50 values are nanomolar. NA stands for “not active” at concentrations less than 10 micromolar. IA stands for “intrinsic activity.”

[3] = biological target: T3, alpha2C receptor (Homo sapiens, UniProt P18825); test: Receptor Selection and Amplification Technology (RSAT) assay, alpha2C; conditions: for EC50 / Alpha 2C EC50: RSAT, NIH-3T3 cells cotransfected with receptor and Gq/i5, not active = not active at concentrations less than 10 micromolar; for EC50: read-out: Alpha 2C EC50; for Alpha 2C IA (intrinsic activity): ratio of maximal effect of the drug to maximal effect of standard full agonist brimonidine (UK14304)
T3 construct: expressed in transfected cells; host or cells: NIH-3T3
T3 sequence (P18825 1-462): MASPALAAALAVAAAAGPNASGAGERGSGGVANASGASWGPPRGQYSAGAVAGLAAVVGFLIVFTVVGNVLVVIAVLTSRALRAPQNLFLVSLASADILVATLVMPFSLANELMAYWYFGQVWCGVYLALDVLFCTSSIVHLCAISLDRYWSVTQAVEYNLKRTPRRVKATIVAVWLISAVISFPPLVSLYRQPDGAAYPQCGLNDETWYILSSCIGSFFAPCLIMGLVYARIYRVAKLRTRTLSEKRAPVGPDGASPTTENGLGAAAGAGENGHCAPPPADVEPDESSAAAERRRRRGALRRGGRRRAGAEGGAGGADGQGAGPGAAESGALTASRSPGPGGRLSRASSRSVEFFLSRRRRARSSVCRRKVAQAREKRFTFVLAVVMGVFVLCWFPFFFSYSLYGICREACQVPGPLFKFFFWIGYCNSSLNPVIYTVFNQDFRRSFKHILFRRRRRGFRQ
Method: as §1, §2, §3, §4

[4] = RSAT, NIH-3T3 cells cotransfected with receptor and Gq/i5, not active = not active at concentrations less than 10 micromolar

| SMILES | Alpha 2A EC50 [1] | EC50 [2, 4] | Alpha 2B IA (intrinsic activity) [2] | EC50 [3] | Alpha 2C IA (intrinsic activity) [3] | EC50 [1] | Alpha 2A IA (intrinsic activity) [1] | Alpha 2C EC50 [3] | Alpha 2B EC50 [2, 4] |
| --- | --- | --- | --- | --- | --- | --- | --- | --- | --- |
| CCC1=C(C)C(NC(=O)NCCF)CC1 (stereo not shown) | not active | 319 nM | 0.88 | 886 nM | 0.37 | – | – | – | – |
| O=C(NCCF)NC1CCc2c(Br)cccc21 (stereo not shown) | – | 2.7 nM | 1.06 | 103 nM | 0.7 | 64.6 nM | 0.97 | – | – |
| Cc1ccc2c(c1)C(NC(=O)NCCF)CC2 (stereo not shown) | not active | 32 nM | 0.88 | 807 nM | 0.31 | – | – | – | – |
| O=C(NCCF)NC1CCc2cc(Br)ccc21 (stereo not shown) | not active | 2620 nM | 0.31 | 1260 nM | 0.31 | – | – | – | – |
| O=C(NCCF)NC1CCCc2c(Br)cccc21 (stereo not shown) | – | 20.3 nM | 0.91 | 204 nM | 0.53 | 146 nM | 0.41 | – | – |
| Cc1cccc2c1CC(NC(=O)NCCF)C2 (stereo not shown) | not active | 100 nM | 0.98 | 454 nM | 0.4 | – | – | – | – |
| Cc1c(Br)ccc2c1C(NC(=O)NCCF)CC2 (stereo not shown) | not active | 238 nM | 0.37 | – | – | – | – | not active | – |
| O=C(NCCF)NC1CCc2cc(Cl)ccc21 (stereo not shown) | not active | 845 nM | 0.31 | – | – | – | – | not active | – |
| O=C(NCCF)NC1CCc2cc(F)ccc21 (stereo not shown) | not active | 88 nM | 0.59 | 543 nM | 0.54 | – | – | – | – |
| O=C(NCCF)NC1Cc2ccc(F)cc2C1 (stereo not shown) | not active | 2200 nM | 0.93 | – | – | – | – | not active | – |
| O=C(NCCF)N[C@@H]1CCc2ccccc21 | – | 565 nM | 0.55 | 1820 nM | 0.61 | 693 nM | 0.36 | – | – |
| COc1ccc2c(c1)CC(NC(=O)NCCF)C2 (stereo not shown) | not active | 1370 nM | 0.45 | – | – | – | – | not active | – |
| COc1ccc2c(c1)C(NC(=O)NCCF)CCC2 (stereo not shown) | not active | 824 nM | 0.78 | – | – | – | – | not active | – |
| COc1ccc2c(c1)CCC2NC(=O)NCCF (stereo not shown) | not active | – | – | 1440 nM | 0.35 | – | – | – | not active |
| O=C(NCCF)NC1CCc2c(OC(=O)c3ccccc3)cccc21 (stereo not shown) | – | 8.3 nM | 0.95 | 102 nM | 0.73 | 95 nM | 0.62 | – | – |
